According to patent US11963975B2, “Therapeutic targets for facioscapulohumeral muscular dystrophy” (University of Massachusetts, priority 2016, dated 2024):

Columns and labels:
[1] = system: primary FSHD muscle cells (09Abic); assay: JQ1 treatment time course, gene expression; type: cell-based, human
Description: (§1) DUX4 expression is induced during myogenic differentiation, and blocking or slowing down this process, as the case with JQ1, give the appearance of inhibiting DUX4 expression, when in fact it is merely altering the kinetics of myoginc differentiation. Importantly, these genes are misregulated by JQ1 in both FSHD and healthy human skeletal muscle myoblasts (HSMM) (FIG. 17). Therefore, JQ1 is an example of a non-specific small molecule and not appropriate for use as an FSHD therapeutic.

[2] = system: healthy human skeletal muscle myoblasts (HSMM); assay: JQ1 treatment of healthy myoblasts, myogenic gene expression; type: cell-based; settings: FIG. 17
Description: as §1

Cc1sc2c(c1C)C(c1ccc(Cl)cc1)=N[C@@H](CC(=O)OC(C)(C)C)c1nnc(C)n1-2 [JQ1]
DUX4 expression (in words) ([1]; 09Abic): appears to inhibit | expression of downstream genes TRIM43 and ZSCAN4 (in words) ([1]; 09Abic): appears to inhibit | expression of myogenic regulatory genes myogenin (Myog), myoD, myosin heavy chain (MyHC), and myostatin (Myost) (in words) ([1]; time course of treatment, FIG. 16): inhibiting the expression | myogenic genes (Myog, myoD, MyHC) (in words) [2]: misregulated
